Legend:
Experiment in all cases: NCI cell line panel
Type in all cases: cell-based
[1] = test system: HCT-116; settings: Homo sapiens, Colon Cancer, read-out: Log10 GI50 (converted)
Source text: (§1) Only two hundred years ago, many diseases ravaged humankind. Many of these diseases now have been controlled or eradicated. In the development of the means to treat or control these diseases, work with the appropriate common experimental animals was of critical importance. With the various types of cancers, and with the HIV virus, such work is presently ongoing. The research for the treatment of various types of cancer is coordinated in the United States by the National Cancer Institute (NCI). NCI, as a government entity, has been charged with assisting anti-cancer research. To establish whether a substance has anti-cancer activity, NCI has established a variety of protocols, one of which involves testing the candidate substance against a cell line panel containing 60 human tumor cell lines. This protocol has been verified and is generally accepted throughout the scientific community. This protocol and the established statistical means of evaluating the results obtained therefrom have been fully described in the literature. See Principles & Practice of Oncology PPO Updates, Volume 3, Number 10, October 1989, by Michael R. Boyd, M.D., Ph.D., for an in depth description of the test protocol. The statistical analysis is explained in "Display and Analysis of Patterns of Differential Activity of Drugs Against Human Tumor Cell Lines: Development of Means Graph and COMPARE Algorithm" Journal of the National Cancer Institute Reports Vol. 81, No. 14, Pg. 1088, Jul. 14, 1989, by K. D. Paull et al. Both of these references are incorporated herein by this reference thereto. The effectiveness and validity of the NCI in vitro protocol continues to be verified.

[2] = test system: UACC-62; settings: Homo sapiens, UACC-62, read-out: Log10 GI50 (converted)
Source text: as §1

[3] = test system: UACC-257; settings: Homo sapiens, Melanoma, read-out: Log10 GI50 (converted)
Source text: as §1

[4] = test system: SK-MEL-28; settings: Homo sapiens, SK-MEL-28, read-out: Log10 GI50 (converted)
Source text: as §1

[5] = test system: NCI-H460; settings: Homo sapiens
Source text: as §1

`C=C/C=C/C(O)CC(=C)CC1OC2C(C)C(OC(=O)CC3CC(O)CC4(CC(C)(O)CC(C=C5COC(C(C)C(=O)CC6CC(OC)CC7(CC(O)CC(/C=C\CCCC8OC(O)(CC(O)C8C)C2O)O7)O6)C5C)O4)O3)C1O` (stereo not drawn) [spongistatin 7] showed a GI50 [1] of 0.288 nM, a GI50 [2] of 0.309 nM and a GI50 [3] of 14.1 nM. For the same compound, the GI50 [4] was 1.29 nM, the GI50 ([5]; NCI-H460, read-out: Log10 GI50 (converted)) was 2.09 nM and the IC (TGI) ([5]; NCI-H460, Non-Small Cell Lung Cancer, read-out: Log10 TGI (converted)) was 100 nM.

Source: patent publication US5393897A, “Isolation and structure of spongistatins 5,7,8 and 9” (Arizona Board of Regents acting on behalf of Arizona State …, priority 1993, dated 1995)
